The record followed here is patent publication US20260130907A1 (DANA-FARBER CANCER INSTITUTE, INC., priority 2022, published 2026).

In brackets after ≈: the same amount, converted by molar mass. Where two headings read alike, the source gives them in different places. Where only a bound is given, the exact number is not on record here.

The nature of one data set: Kinetic solubility. The note with it: kinetic from dmso stock. Format: physicochemical.
A further data set concerns the target T1, B cell lymphoma 6 (BCL6) (Homo sapiens, UniProt P41182).
T1 construct: Endogenous B cell lymphoma 6 (BCL6) was tagged with the 11-amino acid Small BiT (SmBiT); endogenous in cells; host or cells: SU-DHL-4 (CRISPR/Cas9 knock-in, single cell clone)
Kind of data set: HiBiT cellular degradation assay in SU-DHL-4 cells. As to conditions: for DC50: concentration to reach 50% degradation of endogenous SmBiT-tagged BCL6, SU-DHL-4 cells, 24 hours of compound treatment. Type of data set: cell-based. The method, then: DC50 (concentration to reach 50% degradation) values were determined from a cellular degradation assay (HiBiT, Promega™) in Su-DHL-4 cells (Table 1). Endogenous B cell lymphoma 6 (BCL6) was tagged with the 11-amino acid Small BiT (SmBiT) through clustered regularly interspaced short palindromic repeats (CRISPR)/CRISPR-associated protein 9 (Cas9) gene editing and single cell clone selection. After 24 hours of compound treatment, cells were lysed and incubated with Large BiT (LgBiT) protein to reconstitute intact nanoluciferase. Substrate was then added and relative luciferase units were measured. Degradation levels for each treatment were taken as a percentage compared to the control, 100% DMSO (Prism).
In general terms: The HiBiT peptide binds its large partner to form an active luciferase.

Data set [1] is described as follows: Metabolic stability in human liver microsome. Type of data set: in vitro ADME. As to conditions: pH 7.4; human liver microsomes with NADPH, 37° C., 0-60 min. As to the method: • K2HPO4 was dissolved in water to a final concentration of 50 mM, and then adjusted pH to 7.4 with HCl and filtered through a 0.22 μm filter.
• 1 mg/mL stock of terfenadine/tolbutamide with DMSO was prepared, and then made into quenching solution (5/10 ng/mL terfenadine/tolbutamide) with can.
• 10 mM test compound stock with DMSO was prepared, and then made into 200 μM working solution with DMSO.
• 10 mM control compound (dextromethorphan) stock with DMSO was prepared, and then made into 200 μM working solution with DMSO.
• Liver microsomes were thawed in 37° C. water bath, and then made into 0.63 mg/mL liver microsomes working solution with phosphate buffer.
• 5 mM NADPH working solution was prepared with phosphate buffer.
• a) 1.5 μL test compound/control compound working solution was added to 238.5 μL liver microsome (n=1). • b) The solution was pre-incubated at 37° C. for 5 min. • c) The reaction was started by adding 60 μL NADPH working solution. • d) At each time point (0, 5, 15, 30 and 60 min), 30 μL reaction mixture was removed and added to 300 μL quenching solution. • e) All samples were centrifuged at 4,000 rpm at 4° C. for 15 min, then 100 μL of supernatant was transferred with 100 μL water for LC-MS/MS analysis.

Where [2] appears, read: aqueous buffer, 50 mM phosphate buffer pH 7.4, 24 hours at room temperature, read-out: Kinetic solubility @pH 7.4.
The mark [3] stands for this setting: FaSSIF, read-out: Kinetic solubility (FaSSIF).
Setting [4] is: FeSSIF, read-out: Kinetic solubility (FeSSIF).

In general, kinetic solubility refers to the concentration staying in solution when a stock, usually in DMSO, is diluted into the medium. By DC50 is commonly meant the concentration giving 50% degradation. For orientation: microsomal CLint means the capacity of the preparation to metabolise the compound, expressed as a volume cleared per time. Read a high microsomal CLint as rapid turnover. `C[C@@H]1CN(c2ncc(Cl)c(Nc3ccc4c(c3)n(CCC(C)(C)O)c(=O)n4C)n2)C[C@H](CN)C1(F)F` (single isomer, unassigned) [Compound 2a]: the solubility (kinetic) at 24 h in the data set “Kinetic solubility” (setting [2]) stood at 266 µM (≈ 139 µg/mL). This compound also returned a DC50 at B cell lymphoma 6 (BCL6) of 105 nM. For the same compound, the microsomal CLint at 1 µM in data set [1] was < 6.1 µL/min/mg.

As for `CNC(=O)COc1cc2cc(Nc3nc(N4C[C@H](CCN)C(F)(F)[C@H](C)C4)ncc3Cl)ccc2n(C)c1=O` (single isomer, unassigned) [Compound 51a], the kinetic solubility at 24 h is 6.35 µM (≈ 3.49 µg/mL) in the data set “Kinetic solubility” (setting [3]), 113 µM (≈ 62.2 µg/mL) in “Kinetic solubility” (setting [4]) and < 1.56 µM in “Kinetic solubility” (setting [2]). This compound also registered a DC50 at B cell lymphoma 6 (BCL6) of 2 nM. Besides, the microsomal CLint at 1 µM in data set [1] was < 6.1 µL/min/mg.

As to `CNC(=O)COc1cc2cc(Nc3nc(N4C[C@H](C)C[C@H](C)C4)ncc3Cl)ccc2n(C)c1=O` [BI-3802], the solubility (kinetic) at 24 h in the data set “Kinetic solubility” (setting [3]) is 2.97 µM (≈ 1.44 µg/mL); in the data set “Kinetic solubility” (setting [4]), 11.3 µM (≈ 5.48 µg/mL); in the data set “Kinetic solubility” (setting [2]), < 1.56 µM. In addition, the DC50 on B cell lymphoma 6 (BCL6) worked out at 5 nM. In data set [1], this compound had a microsomal CLint at 1 µM of 23.8 µL/min/mg.

In the case of `C[C@@H]1CN(c2ncc(Cl)c(Nc3ccc4c(c3)n(CCC(C)(C)O)c(=O)n4C)n2)C[C@H](C)C1(F)F` [CCT-369260], the solubility (kinetic) at 24 h is 2.92 µM (≈ 1.49 µg/mL) in “Kinetic solubility” (setting [3]), 216 µM (≈ 110 µg/mL) in the data set “Kinetic solubility” (setting [4]) and < 1.56 µM in “Kinetic solubility” (setting [2]). The compound also returned a microsomal CLint at 1 µM in data set [1] of 12.3 µL/min/mg.

As to `CNC(=O)COc1cc2cc(Nc3nc(N4C[C@@H](C)C(F)(F)[C@@H](C)C4)ncc3Cl)ccc2n(C)c1=O` [Cmp A], the solubility (kinetic) at 24 h in “Kinetic solubility” (setting [3]) is < 1.56 µM; in the data set “Kinetic solubility” (setting [4]), 1.82 µM (≈ 0.948 µg/mL); in “Kinetic solubility” (setting [2]), < 1.56 µM. At B cell lymphoma 6 (BCL6), the DC50 stood at 5 nM. The microsomal CLint at 1 µM in data set [1] was < 3.7 µL/min/mg.

On to `C[C@@H]1C[C@H](C)CN(c2ncc(Cl)c(Nc3ccc4c(c3)n(CCC(C)(C)O)c(=O)n4C)n2)C1` [Cmp B], for which the solubility (kinetic) at 24 h in “Kinetic solubility” (setting [3]) was < 1.56 µM; in the data set “Kinetic solubility” (setting [4]) it was 213 µM (≈ 101 µg/mL); in the data set “Kinetic solubility” (setting [2]), < 1.56 µM. The compound further displayed a microsomal CLint at 1 µM in data set [1] of 30 µL/min/mg.

In the case of `C[C@@H]1CN(c2ncc(Cl)c(Nc3ccc4c(c3)n(CCC(C)(C)O)c(=O)n4C)n2)C[C@H](N)C1(F)F` [Compound 1, 5-[[2-[(3S,5R)-3-Amino-4,4-difluoro-5-methyl-1-piperidyl]-5-chloro-pyrimidin-4-yl]amino]-3-(3-hydroxy-3-methyl-butyl)-1-methyl-benzimidazol-2-one], the kinetic solubility at 24 h in “Kinetic solubility” (setting [3]) came out at 208 µM (≈ 106 µg/mL); in “Kinetic solubility” (setting [4]), 232 µM (≈ 118 µg/mL); in the data set “Kinetic solubility” (setting [2]) it was 108 µM (≈ 55.1 µg/mL). Also, it took 20 nM to reach half-maximal degradation on B cell lymphoma 6 (BCL6) (DC50). On B cell lymphoma 6 (BCL6) (conclusion drawn from Table 1), the “BCL6 degrader status (in words)” value is “degraders of BCL6”. Further, the microsomal CLint at 1 µM in data set [1] was < 6.1 µL/min/mg.
